Source: US7087620B2, “Liquid pharmaceutical formulations containing 3,7-diazabicyclo[3,3,1]nonane compounds and methods of treatment relating to anti-arrhythmic events” (Solvay Pharmaceuticals GmbH, priority 2002, dated 2006)
Where a name gives a salt, the structure may show the parent alone.

System: healthy male subjects
Test: Two step infusion study in healthy male subjects: safety and tolerability
Format: in vivo, human
Description: A double-blind, placebo-controlled, randomized, single iv dose, two periods cross-over study to assess the safety, tolerability, pharmacodynamics and pharmacokinetics during and following a two step infusion of Tedisamil in healthy male subjects was performed with the following drug and dosages: Tedisamil dihydrochloride/0.4 mg/kg body weight infused over 30 minutes.
Screening assessments included physical examination, ECG, HIV/Hepatitis screening, blood pressure and heart rate measurements, clinical laboratory determinations, urine drug screen, alcohol breath test, and medical history. Follow-up assessments included physical examination, ECG, blood pressure and heart rate measurements, clinical laboratory determinations, and questions for adverse events and concomitant medication. During concomitant administration of Tedisamil, blood pressure, heart rate, and ECGs were recorded. Adverse events and concomitant medication were monitored throughout the study.
Subjects who received study medication, were considered valid for safety evaluation.
Treatment emergent adverse events, defined as any adverse event present at baseline that worsened or any event that began after treatment with study medication, were summarized by COSTART term for each treatment group. Each adverse event was evaluated for frequency of occurrence, duration, intensity, action taken, outcome, and relationship to administration of the study medication. Adverse events were listed for each subject.
Listings of abnormal or out of range values for each subject were presented for vital signs, laboratory assays, and physical examinations. Adverse events, blood pressure, heart rate and clinical laboratory data were analyzed descriptively and reviewed to evaluate the safety of all randomized subjects. Any clinical abnormalities were described.

`C1CCC2(C1)C1CN(CC3CC3)CC2CN(CC2CC2)C1` [tedisamil dihydrochloride, N,N′-dicyclopropylmethyl-9,9-tetramethylen-3,7-diazabicyclo[3,3,1]nonane dihydrochloride] was tested, and the “Findings in hematology, clinical chemistry, urinalysis and vital signs” value (0.4 mg/kg iv two step infusion) was “No clinically relevant findings” and the Safety and tolerability (two step infusion of 0.4 mg tedisamil dihydrochloride per kg (0.32 mg/kg base), dihydrochloride) was “well tolerated”.
